Where “and” joins values, the source holds several entries; their conditions need not be identical. Identical values can stand only once.
Assays:
[1] = Metabolite profiling in rat bile, urine and feces (radio-HPLC, LC-HRMS); format: in vivo; conditions: in vivo, iv, 4 mg/kg
Description: Tissue homogenate samples at 24 hours were extracted as plasma samples. […] The pooled urine samples containing 10% MeOH were analyzed by liquid chromatography-high resolution mass spectrometry (LC-HRMS).
The pooled bile sample containing 10% MeOH was analyzed by LC-HRMS.
Feces samples obtained from BDC and intact rats were pooled separately across time intervals for each animal (5% w/v) and further pooled across animals for each group to generate a 0–68 hour pooled sample. Approximately 1–2 g of each pooled feces sample was extracted as the same protocol used for plasma samples. […] The reconstituted samples were analyzed by LC-HRMS.
The reconstituted samples were analyzed by LC-HRMS, with eluent fractions collected at 10-second intervals into 96-well plates containing solid scintillant. Radioactivity in each well was determined using TopCount analysis, and radiochemical profiles were generated based on radioactivity counts. Structural elucidation was performed based on mass spectral interpretation to identify metabolites.
For metabolite profiling and identification, LC-MS analysis used a Shimadzu/Nexera LC-30 AD liquid chromatographic system and a ThermoFisher Scientific Q Exactive with a positive/negative heated electrospray interface. The column was a Waters XSelect HSS T3 4.6 mm × 250 mm, 3.5 µm and maintained at 40 °C. The mobile phases were (A) 20 mM ammonium acetate in water and (B) acetonitrile. […] The flow was 1 mL/min and split 20% to mass analysis and 80% collected for radioactivity counting. Mass spectrometry data was acquired with full scans at a resolution of 70,000 for a m/z range of 300 to 1500, and MS/MS scans were acquired at a resolution of 17,500. The mass spectrometer was operated with a normalized collision energy of 30 (ESI+), S-Lens RF level of 60, source voltage of +3.5 kV, Capillary temperature of 320 °C, and Probe heater temperature of 300 °C.

HCC2302 xenograft = test: Mouse efficacy study, tumor volume; format: in vivo
Description: Female C.B-17 SCID (Inbred) mice that weighed 16–20 g were inoculated with 10 million HCC2302 lung adenocarcinoma cells (suspended in a mixture of Hank’s Balanced Salt Solution containing Matrigel at a 1:1 ratio) in the right flank subcutaneously. Tumors were monitored until they reached a mean tumor volume of 110–167 mm^3. The mean tumor volume across all three groups was 141 ± 16.64 mm^3 (mean ± SD) at the initiation of dosing (Study WF-31, n = 10). […] Tumor volumes were measured in two dimensions (length and width) using Ultra Cal-IV calipers. The tumor volume was calculated with the following formula: Tumor size (mm^3) = (longer measurement × shorter measurement^2)/2. Animal body weights were measured using an Adventura scale. Percent weight change was calculated using the following formula: Group percent weight change = (new weight − initial weight)/ initial weight) × 100%.
In a separate study, tumors were monitored until they reached a mean tumor volume of 121–159 mm^3. The mean tumor volume across all three groups was 138 ± 10.26 mm^3 (mean ± SD) at the initiation of dosing (Study WF-34, n = 10).

CYP3A4/5 = test: Reversible P450 inhibition in HLM; format: biochemical; conditions: human, human liver microsomes
Description: The reversible P450 inhibition assay was conducted in triplicate on a BioCel 1200 System, V11 (Agilent, CA), as previously described by Kosaka, et al.[28] […] […] P450 activity was expressed as the peak area ratio of a P450-specific metabolite formed relative to its internal standard, and inhibition percentage was calculated from P450 activity of samples relative to the solvent control. Inhibition data were processed using Prism (GraphPad Software, San Diego, CA) to calculate IC50 values for each P450 enzyme.

| SMILES | %Rad in bile [1] | %rad in feces [1] | %rad in urine [1] | Tumor growth inhibition (HCC2302 xenograft; HCC2302 xenograft, weekly doses of 20 or 40 mg/kg) | Tumor volume (mean) (HCC2302 xenograft; WF-31, 40 mg/kg IV QW, day 0, 3, 7, 10, 13, 14, 21) | IC50 (CYP3A4/5; pH 7.4, probe midazolam, substrate Midazolam) | IC50 (CYP3A4/5; pH 7.4, probe testosterone, substrate Testosterone) |
| --- | --- | --- | --- | --- | --- | --- | --- |
| Cc1ncsc1-c1ccc(C(C)NC(=O)C2CC(O)CN2C(=O)C(c2cc(N3CCC(CN4CCC(OC5CC(Oc6cc(N7C8CCC7CN(c7cc(-[14c]9[14cH][14cH][14cH][14cH][14c]9O)nnc7N)C8)ccn6)C5)CC4)CC3)no2)C(C)C)cc1 (stereo not shown) [14C-A947] | 23.11% | 18.95% | 20.6% | – | – | – | – |
| Cc1ncsc1-c1ccc(C(C)NC(=O)C2CC(O)CN2C(=O)C(c2cc(N3CCC(CN4CCC(OC5CC(Oc6cc(N7C8CCC7CN(c7cc(-c9ccccc9O)nnc7N)C8)ccn6)C5)CC4)CC3)no2)C(C)C)cc1 (stereo not shown) [A947] | – | – | – | dose-dependent tumor growth inhibition | 202.88 mm^3 and 192.71 mm^3 and 203.88 mm^3 and 210.27 mm^3 and 204.46 mm^3 and 141.86 mm^3 and 179.41 mm^3 | 540 nM | > 10000 nM |

— article PMC11099041, “Tissue distribution and retention drives efficacy of rapidly clearing VHL-based PROTACs” (Communications Medicine, 2024)
